Marks after values point to notes of the source that are not given here.
System: ZR75-1 cells
Assay: Immuno-staining of protein expression and protein phosphorylation, ZR75-1 cells
Assay type: cell-based
Set-up: ATM level / P-317 (ULK1) level / Beclin1 level / ATG5 level / HDAC8 level / BIM level: scale not given here
Method: ZR75-1 and MCF7 cells were treated with vehicle control, GZ17-6.02, Palbociclib or the drugs combined for 3 hours and for 6 hours. Cells were fixed in place and immuno-staining performed with in house validated antibodies to detect protein expression and protein phosphorylation.

## CC(=O)c1c(C)c2cnc(Nc3ccc(N4CCNCC4)cn3)nc2n(C2CCCC2)c1=O [PALBO, Palbociclib]
ZR75, 6 h
  AKT level: 101
  AMPKa level: 100
  ATG5 level: 114#
  ATG13 level: 100
  ATM level: 100
  BAK level: 109
  BAX level: 108
  BCL-XL level: 91
  BIM level: 113#
  Beclin1 level: 118#
  CD95 level: 101
  CHOP level: 109
  Cyclin D level: 107
  Cyclin E level: 105
  ER level: 99
  ERBB1 level: 100
  ERBB2 level: 100
  ERBB3 level: 99
  ERK1/2 level: 100
  ERK2 level: 99
  ERRB4 level: 99
  FAS-L level: 109
  GRP78 level: 112
  HDAC1 level: 102
  HDAC2 level: 95
  HDAC3 level: 97
  HDAC4 level: 100
  HDAC5 level: 101
  HDAC6 level: 98
  HDAC7 level: 102
  HDAC8 level: 99
  HDAC9 level: 101
  HDAC10 level: 100
  HDAC11 level: 100
  IDO1 level: 100
  JAK2 level: 100
  JNK1/2 level: 100
  LATS1/2 level: 99
  MCL1 level: 91
  MHCA level: 103
  NEDD4 level: 97
  NFkB level: 101
  ODC level: 98
  P-89 (TAZ) level: 101
  P-109 (YAP) level: 105
  P-127 (YAP) level: 106
  P-317 (ULK1) level: 114#
  P-397 (YAP) level: 99
  P-757 (ULK1) level: 97
  P-909 (LATS1/2) level: 109
  P-1079 (LATS1/2) level: 102
  P-AMPKa level: 117#
  P-ATG13 level: 121#
  P-ATM level: 109
  P-ERBB1 level: 100
  P-ERBB2 level: 98
  P-ERBB3 level: 116#
  P-ERBB4 level: 101
  P-ERK level: 99
  P-JAK2 level: 99
  P-JNK level: 88
  P-KIT level: 100
  P-MET level: 99
  P-NFkB level: 98
  P-PDGFRb level: 98
  P-PERK level: 111
  P-S2448 (mTOR) level: 98
  P-S2481 (mTOR) level: 98
  P-T308 (AKT) level: 106
  P-Y694 (STAT5) level: 99
  P-Y705 (STAT3) level: 99
  P-eIF2a level: 109
  P-p38 level: 100
  P-p70 T389 level: 101
  PD-L1 level: 99
  PD-L2 level: 104
  PDGFRb level: 100
  PERK level: 99
  PP1 level: 99
  PTEN level: 101
  STAT3 level: 99
  STAT5 level: 99
  TAZ level: 102
  ULK1 level: 100
  Y416 (c-SRC) level: 102
  Y527 (c-SRC) level: 98
  YAP level: 99
  c-KIT level: 100
  c-MET level: 101
  c-SRC level: 101
  eIF2a level: 100
  mTOR level: 100
  p38 level: 99
  p70 S6K level: 99
ZR75, 6 h, listed as Palbo
  P-ERBB3 level: 116
ZR75 and MCF7, 3 h and 6 h, trend
  increase in the levels of cyclin D and cyclin E: 5-10%

Source: US20220008359A1, “COMBINATION ANTI-CANCER PRODUCTS AND METHODS” (priority 2020, published 2022)
